Source: ChEMBL document CHEMBL1201862, “PubChem BioAssay data set” (2004)
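Five concentrations, 48 hours, 96-well plates. The concentration for 50% growth inhibition is given as GI50.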 The source made the active and inactive calls. Cut-off read from the data, not from the text of the source: active = GI50 up to about 1.1 µM and inactive = higher.

Assays:
Experiment in all cases: inhibition of tumour cell growth, NCI panel, 48 h
[1] = system: MOLT-4
[2] = system: CAKI-1
[3] = system: U-251
[4] = system: SNB-75
[5] = system: RXF 393
[6] = system: HCT-15
[7] = system: IGROV-1
[8] = system: SK-MEL-5
[9] = system: SF-295
[10] = system: ACHN
[11] = system: KM12
[12] = system: HT-29
[13] = system: MCF7
[14] = system: NCI/ADR-RES
[15] = system: UACC-257
[16] = system: SF-539
[17] = system: OVCAR-3
[18] = system: Malme-3M
[19] = system: TK-10
[20] = system: MDA-N

COc1ccc(C(OCC2OC(n3cc(C)c(=O)[nH]c3=O)CC2n2cc(Cn3cc(Cl)c(=O)[nH]c3=O)nn2)(c2ccccc2)c2ccccc2)cc1 (stereo not given)
GI50 [1]: 4.7 µM (inactive)
GI50 [2]: > 100 µM (inactive)
GI50 [3]: 24.8 µM (inactive)
GI50 [4]: > 100 µM (inactive)
GI50 [5]: > 100 µM (inactive)
GI50 [6]: > 100 µM
GI50 [7]: 39.5 µM (inactive)
GI50 [8]: > 100 µM (inactive)
GI50 [9]: > 100 µM (inactive)
GI50 [10]: > 100 µM (inactive)
GI50 [11]: > 100 µM (inactive)
GI50 [12]: > 100 µM (inactive)
GI50 [13]: 21.8 µM (inactive)
GI50 [14]: > 100 µM (inactive)
GI50 [15]: > 100 µM (inactive)
GI50 [16]: > 100 µM (inactive)
GI50 [17]: > 100 µM (inactive)
GI50 [18]: > 100 µM (inactive)
GI50 [19]: > 100 µM (inactive)
GI50 [20]: 9.14 µM (inactive)

O=C(O)c1ccc(NC(c2ccccc2)c2ccc3cccnc3c2O)cc1 (stereo not given)
GI50 [1]: 3.56 µM (inactive)
GI50 [2]: 7.83 µM (inactive)
GI50 [3]: 4.17 µM (inactive)
GI50 [4]: 11.6 µM (inactive)
GI50 [5]: 9.12 µM (inactive)
GI50 [6]: 4.95 µM
GI50 [7]: 16.5 µM (inactive)
GI50 [8]: 6.65 µM (inactive)
GI50 [9]: 4 µM (inactive)
GI50 [10]: 8.41 µM (inactive)
GI50 [11]: 5.14 µM (inactive)
GI50 [12]: 5.15 µM (inactive)
GI50 [13]: 4.42 µM (inactive)
GI50 [14]: 3.5 µM (inactive)
GI50 [15]: 11.1 µM (inactive)
GI50 [16]: 5.66 µM (inactive)
GI50 [17]: 2.99 µM (inactive)
GI50 [18]: 29 µM (inactive)
GI50 [19]: 13.7 µM (inactive)
GI50 [20]: 17.5 µM (inactive)

Cc1ccc2c(c1)c1ccc3c(c1n2C)C(=O)C=CC3=O
GI50 [1]: 0.76 µM (active)
GI50 [2]: 2.36 µM (inactive)
GI50 [3]: > 7.31 µM (inactive)
GI50 [4]: > 10 µM (inactive)
GI50 [5]: 1.97 µM (inactive)
GI50 [6]: 1.75 µM
GI50 [7]: 3.52 µM (inactive)
GI50 [8]: 4.56 µM (inactive)
GI50 [9]: > 10 µM (inactive)
GI50 [10]: 1.56 µM (inactive)
GI50 [11]: 6.84 µM (inactive)
GI50 [12]: > 10 µM (inactive)
GI50 [13]: 1.8 µM (inactive)
GI50 [14]: 2.96 µM (inactive)
GI50 [15]: 2.51 µM (inactive)
GI50 [16]: 2.32 µM (inactive)
GI50 [17]: 1.95 µM (inactive)
GI50 [18]: 2 µM (inactive)
GI50 [19]: 2 µM (inactive)
GI50 [20]: 1.73 µM (inactive)

CC(C)OC(=O)NNc1c(Cl)cc(Cl)cc1Cl
GI50 [1]: 58.7 µM (inactive)
GI50 [2]: 58.6 µM (inactive)
GI50 [3]: > 100 µM (inactive)
GI50 [4]: 99.5 µM (inactive)
GI50 [5]: 26.2 µM (inactive)
GI50 [6]: 58.5 µM
GI50 [7]: 37.3 µM (inactive)
GI50 [8]: 22.5 µM (inactive)
GI50 [9]: 77.6 µM (inactive)
GI50 [10]: > 100 µM (inactive)
GI50 [11]: 71.6 µM (inactive)
GI50 [12]: > 100 µM (inactive)
GI50 [13]: 40.3 µM (inactive)
GI50 [14]: 67.9 µM (inactive)
GI50 [15]: 33.7 µM (inactive)
GI50 [16]: > 100 µM (inactive)
GI50 [17]: 56 µM (inactive)
GI50 [18]: 20.4 µM (inactive)
GI50 [19]: 37.7 µM (inactive)
GI50 [20]: 55 µM (inactive)

CC1CCCc2c(C#N)c(N)nc(-c3ccc(Cl)cc3)c21 (stereo not given)
GI50 [1]: 7.69 µM (inactive)
GI50 [2]: 68.7 µM (inactive)
GI50 [3]: 22.2 µM (inactive)
GI50 [4]: 22.4 µM (inactive)
GI50 [5]: 6.87 µM (inactive)
GI50 [6]: 11.7 µM
GI50 [7]: 14.4 µM (inactive)
GI50 [8]: 9.38 µM (inactive)
GI50 [9]: 18.3 µM (inactive)
GI50 [10]: 17.6 µM (inactive)
GI50 [11]: 17.9 µM (inactive)
GI50 [12]: 6.75 µM (inactive)
GI50 [13]: 19.6 µM (inactive)
GI50 [14]: 20.6 µM (inactive)
GI50 [15]: 25.4 µM (inactive)
GI50 [16]: 14.5 µM (inactive)
GI50 [17]: 12.6 µM (inactive)
GI50 [18]: 18.7 µM (inactive)
GI50 [19]: 29.8 µM (inactive)
GI50 [20]: 31 µM (inactive)
